Reference: the supplement of paper PMC10307832

What follows are cell lines tested with COC1=C(C=C(C=C1)C2=CC3=NC=CN3C(=N2)NC4=C(C=CC=N4)C(=O)N)OC [BAY61-3606] + Nc1nc2[nH]cc(CCc3ccc(C(=O)N[C@@H](CCC(=O)O)C(=O)O)cc3)c2c(=O)[nH]1 [Pemetrexed] (partner 0.2 µM) (assay: relative viability (nuclei count vs DMSO), 5 days (fraction); higher = more cells survive). Conditions: first compound 0.02 µM.
Summary of the method: (§1)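 Each reported value is a median over duplicate plates. It expresses relative viability: treated-well nuclei count divided by vehicle-well nuclei count. Lung cancer cell lines in 1536-well plates were dosed by pin tool a day after seeding, alone with one drug or with a fixed anchor-drug dose plus five library-drug doses (not always all listed) in √10 steps, and nuclei were counted after 5 days.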

Cell Line | relative viability
ChaGo-K-1 | 0.265
NCI-H322M | 0.598
HCC-78 | 0.864
LXF-289 | 0.94
BEN | 0.959
HARA | 0.25
HCC-827 | 0.274
NCI-H520 | 0.75
LOU-NH91 | 0.402
NCI-H2023 | 0.263
A-427 | 1.05
NCI-H647 | 0.146
PC-3 [JPC-3] | 1.12
NCI-H1755 | 0.488
NCI-H650 | 0.958

Same assay, conditions: first compound 0.06325 µM

Cell Line | relative viability
ChaGo-K-1 | 0.268
NCI-H322M | 0.627
HCC-78 | 0.951
LXF-289 | 0.939
BEN | 0.627
HARA | 0.253
HCC-827 | 0.295
NCI-H520 | 0.782
LOU-NH91 | 0.385
NCI-H2023 | 0.257
A-427 | 1.02
NCI-H647 | 0.156
PC-3 [JPC-3] | 1.05
NCI-H1755 | 0.4
NCI-H650 | 0.904

Same assay, conditions: first compound 0.2 µM

Cell Line | relative viability
ChaGo-K-1 | 0.253
NCI-H322M | 0.634
HCC-78 | 0.868
LXF-289 | 0.901
BEN | 0.727
HARA | 0.236
HCC-827 | 0.274
NCI-H520 | 0.768
LOU-NH91 | 0.413
NCI-H2023 | 0.212
A-427 | 0.992
NCI-H647 | 0.184
PC-3 [JPC-3] | 1.21
NCI-H1755 | 0.411
NCI-H650 | 0.892

Same assay, conditions: first compound 0.6325 µM

Cell Line | relative viability
ChaGo-K-1 | 0.265
NCI-H322M | 0.637
HCC-78 | 0.889
LXF-289 | 0.946
BEN | 0.748
HARA | 0.221
HCC-827 | 0.254
NCI-H520 | 0.684
LOU-NH91 | 0.38
NCI-H2023 | 0.246
A-427 | 0.892
NCI-H647 | 0.145
PC-3 [JPC-3] | 1.13
NCI-H1755 | 0.419
NCI-H650 | 1.01

Same assay, conditions: first compound 2 µM

Cell Line | relative viability
ChaGo-K-1 | 0.253
NCI-H322M | 0.538
HCC-78 | 0.825
LXF-289 | 0.907
BEN | 0.724
HARA | 0.238
HCC-827 | 0.262
NCI-H520 | 0.467
LOU-NH91 | 0.413
NCI-H2023 | 0.157
A-427 | 0.908
NCI-H647 | 0.131
PC-3 [JPC-3] | 1.04
NCI-H1755 | 0.562
NCI-H650 | 0.797

These cell lines were tested with COc1cccc2c1C(=O)c1c(O)c3c(c(O)c1C2=O)C[C@@](O)(C(=O)CO)C[C@@H]3O[C@H]1C[C@H](N)[C@H](O)[C@H](C)O1 [Doxorubicin] + O=C(CCCCCCC(=O)Nc1ccccc1)NO [Vorinostat] (partner 1 µM) in the same assay as above. Conditions: first compound 0.001 µM.
Summary of the method: as §1

Cell Line | relative viability
ChaGo-K-1 | 0.763
NCI-H322M | 1.01
HCC-78 | 0.445
LXF-289 | 0.703
BEN | 0.617
HARA | 0.593
HCC-827 | 0.559
NCI-H520 | 0.757
NCI-H2023 | 0.463
A-427 | 0.913
NCI-H647 | 0.546
PC-3 [JPC-3] | 1.02
NCI-H1755 | 0.78
NCI-H650 | 0.553

Same assay, conditions: first compound 0.003162 µM

Cell Line | relative viability
ChaGo-K-1 | 0.76
NCI-H322M | 0.836
HCC-78 | 0.481
LXF-289 | 0.787
BEN | 0.612
HARA | 0.482
HCC-827 | 0.854
NCI-H520 | 0.733
LOU-NH91 | 0.892
NCI-H2023 | 0.657
A-427 | 0.884
NCI-H647 | 0.671
PC-3 [JPC-3] | 0.946
NCI-H1755 | 0.749
NCI-H650 | 0.505

Same assay, conditions: first compound 0.01 µM

Cell Line | relative viability
ChaGo-K-1 | 0.721
NCI-H322M | 0.85
HCC-78 | 0.407
LXF-289 | 0.745
BEN | 0.467
HARA | 0.547
HCC-827 | 0.856
NCI-H520 | 0.788
LOU-NH91 | 0.853
NCI-H2023 | 0.272
A-427 | 0.847
NCI-H647 | 0.387
PC-3 [JPC-3] | 0.824
NCI-H1755 | 0.716
NCI-H650 | 0.422

Same assay, conditions: first compound 0.03162 µM

Cell Line | relative viability
ChaGo-K-1 | 0.698
NCI-H322M | 0.769
HCC-78 | 0.51
LXF-289 | 0.805
BEN | 0.58
HARA | 0.589
HCC-827 | 0.774
NCI-H520 | 0.596
LOU-NH91 | 0.615
NCI-H2023 | 0.0749
A-427 | 0.647
NCI-H647 | 0.132
PC-3 [JPC-3] | 0.747
NCI-H1755 | 0.788
NCI-H650 | 0.355

Same assay, conditions: first compound 0.1 µM

Cell Line | relative viability
ChaGo-K-1 | 0.574
NCI-H322M | 0.57
HCC-78 | 0.414
LXF-289 | 0.744
BEN | 0.502
HARA | 0.432
HCC-827 | 0.641
NCI-H520 | 0.564
LOU-NH91 | 0.331
NCI-H2023 | 0.109
A-427 | 0.351
NCI-H647 | 0.189
PC-3 [JPC-3] | 0.416
NCI-H1755 | 0.827
NCI-H650 | 0.432
